From the supplement of paper PMC11061612

Assays:
Assay in all cases: combination Emax (second highest fraction inhibited in the dose matrix, 72 h); higher = more inhibition; extreme values may be limits of the assay
[1] = test system: DND-41 (T-Lymphoblastic Leukemia)
Summary of the method: (§1)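 After 24 hours at 37°C and 5% CO2 in 1536-well plates, cells in DMEM/F12 or RPMI plus 10% FBS received two-drug dose matrices for 72 hours. Viability came from CellTiter-Glo 2.0 luminescence and was scaled as inhibition, anchored at 0 by vehicle wells and at 1 by blank wells. Combination Emax is taken as the second-highest inhibition in the matrix, and Bliss excess as the observed combination effect less EA + EB − EA·EB, with EA and EB the single-agent effects.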

[2] = test system: CAMA-1 (Breast Carcinoma)
Summary of the method: as §1

[3] = test system: NCI-H1792 (Lung Adenocarcinoma)
Summary of the method: as §1

[4] = test system: ES1 (Ewing's Sarcoma)
Summary of the method: as §1

[5] = test system: U251 (Low Grade Glioma)
Summary of the method: as §1

[6] = test system: MOLT-16 (T-Lymphoblastic Leukemia)
Summary of the method: as §1

[7] = test system: WM-115 (Melanoma)
Summary of the method: as §1

[8] = test system: MKN28 (Gastric Carcinoma)
Summary of the method: as §1

[9] = test system: K-562 (Chronic Myelogenous Leukemia)
Summary of the method: as §1

[10] = test system: TOV-112D (Ovarian Carcinoma)
Summary of the method: as §1

[11] = test system: NCI-H847 (Small Cell Lung Carcinoma)
Summary of the method: as §1

[12] = test system: EVSA-T (Breast Carcinoma)
Summary of the method: as §1

[13] = test system: MFM-223 (Breast Carcinoma)
Summary of the method: as §1

[14] = test system: DiFi (Colorectal Carcinoma)
Summary of the method: as §1

[15] = test system: WIL2-NS (Non-Cancerous)
Summary of the method: as §1

[16] = test system: TC-71 (Ewing's Sarcoma)
Summary of the method: as §1

[17] = test system: TE-6 (Esophageal Squamous Cell Carcinoma)
Summary of the method: as §1

[18] = test system: COLO-678 (Colorectal Carcinoma)
Summary of the method: as §1

[19] = test system: SW837 (Colorectal Carcinoma)
Summary of the method: as §1

Structure (SMILES) | combination Emax [1] | combination Emax [2] | combination Emax [3] | combination Emax [4] | combination Emax [5] | combination Emax [6] | combination Emax [7] | combination Emax [8] | combination Emax [9] | combination Emax [10] | combination Emax [11] | combination Emax [12] | combination Emax [13] | combination Emax [14] | combination Emax [15] | combination Emax [16] | combination Emax [17] | combination Emax [18] | combination Emax [19]
Cc1cc2ncnn2cc1Nc1ncc2c(n1)n(C1CCOCC1)c(=O)n2C [AZD7648] + C[C@@H]1COCCN1C2=NC(=NC(=C2)C3(CC3)[S@](=N)(=O)C)C4=C5C=CNC5=NC=C4 [AZD6738] (first compound max 10 µM, 7x7, partner max 10 µM) | 0.894 | 0.393 | 0.696 | 0.913 | 0.353 | 1 | 0.571 | 0.514 | 0.892 | 0.685 | 1 | 0.323 | 0.832 | 0.842 | 0.979 | 0.835 | 0.553 | 0.175 | 0.39
CCN(CCO)CCCOc1ccc2c(Nc3cc(CC(=O)Nc4cccc(F)c4)[nH]n3)ncnc2c1 [AZD2811] + C=CCn1c(=O)c2cnc(Nc3ccc(N4CCN(C)CC4)cc3)nc2n1-c1cccc(C(C)(C)O)n1 [AZD1775] (first compound max 1 µM, partner max 1 µM) | 0.902 | 0.171 | 0.608 | 0.779 | 0.266 | 1 | 0.193 | 0.5 | 0.811 | 0.712 | 1 | 0.257 | 0.56 | 0.671 | 0.944 | 0.857 | 0.236 | 0.278 | 0.15
Cc1cc2ncnn2cc1Nc1ncc2c(n1)n(C1CCOCC1)c(=O)n2C [AZD7648] + CCN(CCO)CCCOc1ccc2c(Nc3cc(CC(=O)Nc4cccc(F)c4)[nH]n3)ncnc2c1 [AZD2811] (first compound max 10 µM, 7x7, partner max 1 µM) | 0.236 | 0.28 | 0.553 | 0.724 | 0.233 | 1 | 0.42 | 0.309 | 0.202 | 0.458 | 0.971 | 0.327 | 0.298 | 0.584 | 0.215 | 0.793 | 0.313 | 0.152 | 0.192
CN(C)CCCOc1ccc(-c2ccc3ncc4c(c3c2)n(C2CCOCC2)c(=O)n4C)cn1 [AZD0156] + C=CCn1c(=O)c2cnc(Nc3ccc(N4CCN(C)CC4)cc3)nc2n1-c1cccc(C(C)(C)O)n1 [AZD1775] (first compound max 1 µM, partner max 1 µM) | 0.848 | 0.104 | 0.643 | 0.682 | 0.398 | 1 | 0.254 | 0.481 | 0.715 | 0.475 | 0.971 | 0.221 | 0.653 | 0.637 | 0.976 | 0.452 | 0.232 | 0.226 | 0.237
C=CCn1c(=O)c2cnc(Nc3ccc(N4CCN(C)CC4)cc3)nc2n1-c1cccc(C(C)(C)O)n1 [AZD1775] + O=C(c1cc(Cc2n[nH]c(=O)c3ccccc23)ccc1F)N1CCN(C(=O)C2CC2)CC1 [Olaparib] (first compound max 1 µM, partner max 10 µM) | 0.878 | 0.149 | 0.707 | 0.838 | 0.442 | 1 | 0.259 | 0.573 | 0.845 | 0.427 | 1 | 0.289 | 0.56 | 0.678 | 0.931 | 0.583 | 0.319 | 0.205 | 0.39
COc1cc2c(cc1OCCCCCOc1cc3c(cc1OC)C(=O)N1C=C(C)C[C@H]1C=N3)N=C[C@@H]1CC(C)=CN1C2=O [SG3199] + O=C(c1cc(Cc2n[nH]c(=O)c3ccccc23)ccc1F)N1CCN(C(=O)C2CC2)CC1 [Olaparib] (first compound max 0.001 µM, 7x7, partner max 10 µM) | 0.216 | 0.109 | 0.144 | 0.689 | 0.183 | 0.659 | 0.206 | 0.0709 | 0.134 | 0.269 | 0.509 | 0.276 | 0.128 | 0.107 | 0.247 | 0.518 | 0.117 | 0.13 | 0.0782
C[C@@H]1COCCN1c1cc(C2([S@](C)(=N)=O)CC2)nc(-c2ccnc3[nH]ccc23)n1 [AZD6738] + O=C(c1cc(Cc2n[nH]c(=O)c3ccccc23)ccc1F)N1CCN(C(=O)C2CC2)CC1 [Olaparib] (first compound max 10 µM, 7x7, partner max 10 µM) | 0.947 | 0.322 | 0.707 | 0.99 | 0.661 | 1 | 0.518 | 0.484 | 0.811 | 0.795 | 0.978 | 0.346 | 0.773 | 0.775 | 0.968 | 0.887 | 0.498 | 0.159 | 0.343
